Values quoted from earlier work as cited in US20260272907A1, “Therapeutic Tyrosine Kinase Inhibitors for Multiple Sclerosis” (Principia Biopharma Inc., priority 2022, published 2026).

Tested on: RMS patients
Settings: from Week 12; cited from earlier work

C=CC(=O)N1CCC(CNc2ncnc(N)c2-c2ccc(Oc3ccccc3)cc2)CC1 [evobrutinib]
Reduction of new Gd-enhancing T1 lesions: meaningful reduction
